According to patent publication US20260232763A1 (Kadmon Corporation, LLC, priority 2023, published 2026):
Counter-ions that a name gives are not always drawn. Marks after values point to notes of the source that are not given here. Values belong to the compound of their own block, whether it stands above or below them.

Legend:
[1] = Example 3 Part 1 (Regimen A) raltegravir + belumosudil plasma PK
Method: (§1) On Day 10, the victim and perpetrator IMPs were administered simultaneously.
(§2) On the evening before each dose, participants were provided with a light snack and were required to fast from all food and drink (except water) for a minimum of 10 hours until the following morning. All study interventions were administered in the fed state, following completion of a standard breakfast (with dosing planned to occur 30 minutes after the start of the breakfast).
(§3) The PK parameters underwent a natural logarithmic transformation and were analyzed using a mixed effect modelling technique. Adjusted geometric mean ratios and 90% confidence intervals (CIs) of the ratios were obtained for each comparison. The ratio was defined as test/reference. In addition, the intraparticipant variability were also presented. […] No formal interim analyses were performed for this study.

[2] = Example 3 Part 2 (Regimen B) dabigatran etexilate + belumosudil plasma PK; type: in vivo, human
Method: The ratio was defined as test/reference. In addition, the intraparticipant variability were also presented. […] No formal interim analyses were performed for this study.

[3] = cited from earlier work
[4] = metabolite exposure in clinical trials of the belumosudil development program; type: in vivo, human
clinical = conditions: human, in vivo
Method: as §1, §2, §3

ROCK2 = ROCK2 (Homo sapiens, UniProt O75116); experiment: ROCK2 inhibition; type: biochemical
Chain of ROCK2 (O75116 whole entry): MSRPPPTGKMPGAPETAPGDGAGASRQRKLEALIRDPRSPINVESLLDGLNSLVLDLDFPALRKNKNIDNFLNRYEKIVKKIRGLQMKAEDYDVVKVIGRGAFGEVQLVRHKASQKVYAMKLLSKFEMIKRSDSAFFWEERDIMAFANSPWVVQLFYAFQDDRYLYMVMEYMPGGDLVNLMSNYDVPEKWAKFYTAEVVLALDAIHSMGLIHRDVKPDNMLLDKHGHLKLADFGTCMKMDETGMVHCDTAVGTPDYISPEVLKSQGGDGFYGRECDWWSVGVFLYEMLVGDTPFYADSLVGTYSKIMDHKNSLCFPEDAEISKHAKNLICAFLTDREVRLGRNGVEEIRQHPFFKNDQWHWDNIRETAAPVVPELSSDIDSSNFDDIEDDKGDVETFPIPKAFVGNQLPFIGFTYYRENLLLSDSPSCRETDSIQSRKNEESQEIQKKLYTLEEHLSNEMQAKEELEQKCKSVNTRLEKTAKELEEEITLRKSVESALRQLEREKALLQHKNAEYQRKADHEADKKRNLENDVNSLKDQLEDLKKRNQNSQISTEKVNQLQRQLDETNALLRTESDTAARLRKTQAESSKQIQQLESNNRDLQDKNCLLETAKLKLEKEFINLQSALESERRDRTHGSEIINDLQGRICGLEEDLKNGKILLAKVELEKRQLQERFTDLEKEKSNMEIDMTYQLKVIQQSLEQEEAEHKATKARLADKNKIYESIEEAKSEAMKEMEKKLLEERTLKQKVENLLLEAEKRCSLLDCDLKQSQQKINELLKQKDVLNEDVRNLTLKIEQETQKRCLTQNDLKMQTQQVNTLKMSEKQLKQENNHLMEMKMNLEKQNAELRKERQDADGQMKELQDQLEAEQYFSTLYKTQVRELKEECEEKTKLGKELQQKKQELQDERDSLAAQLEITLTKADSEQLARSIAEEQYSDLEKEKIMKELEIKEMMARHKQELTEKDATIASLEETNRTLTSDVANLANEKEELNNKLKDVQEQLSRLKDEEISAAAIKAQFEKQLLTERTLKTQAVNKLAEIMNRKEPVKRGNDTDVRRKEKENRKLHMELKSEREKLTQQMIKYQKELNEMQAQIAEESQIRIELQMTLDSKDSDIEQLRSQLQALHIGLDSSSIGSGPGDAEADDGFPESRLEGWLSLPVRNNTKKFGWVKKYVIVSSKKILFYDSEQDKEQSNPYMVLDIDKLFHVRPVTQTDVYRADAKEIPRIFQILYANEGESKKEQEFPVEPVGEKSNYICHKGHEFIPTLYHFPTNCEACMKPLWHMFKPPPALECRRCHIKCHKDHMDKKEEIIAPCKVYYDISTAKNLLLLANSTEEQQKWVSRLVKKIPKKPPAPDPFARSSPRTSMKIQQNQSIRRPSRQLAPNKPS

[5] = Raltegravir + belumosudil (Day 7), belumosudil 200 mg QD
[6] = Raltegravir alone (Day 1), 400 mg single dose
[7] = Regimen A, raltegravir 400 mg single dose + belumosudil 200 mg QD (Day 7)
[8] = Regimen A, raltegravir 400 mg single dose alone (Day 1)
[9] = raltegravir + belumosudil vs raltegravir alone
[10] = Dabigatran etexilate + belumosudil (Day 9), belumosudil 200 mg QD
[11] = Dabigatran etexilate alone (Day 1), 75 mg single dose
[12] = Regimen B, dabigatran etexilate 75 mg single dose + belumosudil 200 mg QD (Day 9)
[13] = dabigatran etexilate + belumosudil vs alone
[14] = dosed with belumosudil compared to dosing alone

AUC(0-last), geometric mean [2, 10]: 682 ng·h/mL | Cmax, geometric mean [2, 10]: 99.5 ng/mL | T1/2, geometric mean [2, 10]: 8.293 h | Tmax, median [2, 10]: 2.000 h | AUC(0-last), geometric mean [2, 11]: 317 ng·h/mL | Cmax, geometric mean [2, 11]: 42.1 ng/mL | T1/2, geometric mean [2, 11]: 8.128 h | Tmax, median [2, 11]: 3.000 h | AUC(0-last), adj geo mean [2, 12]: 682 ng·h/mL | Cmax, adj geo mean [2, 12]: 99.5 ng/mL | Cmax, adj geo mean ([2]; Regimen B, dabigatran etexilate 75 mg single dose alone (Day 1)): 42.1 ng/mL | increase of exposure ([2]; coadministration of belumosudil): 2 fold | AUC(0-inf), ratio of adj geo means (test/reference) [2, 13]: 206.47% | AUC(0-last), ratio of adj geo means (test/reference) [2, 13]: 215.41% | Cmax, ratio of adj geo means (test/reference) [2, 13]: 236.06% | increase of overall exposure level [2, 14]: 2.06 fold | increase of peak exposure level [2, 14]: 2.36 fold | AUC(0-inf) ([2]; male, human, plasma, oral, 75 mg, Dabigatran etexilate alone (Day 1), 75 mg single dose, read-out: AUC(0-inf), geometric mean): 371 ng·h/mL | AUC(0-inf) ([2]; male, human, plasma, oral, 75 mg, Regimen B, dabigatran etexilate 75 mg single dose alone (Day 1), read-out: AUC(0-inf), adj geo mean): 398 ng·h/mL | AUC(0-inf) ([2]; male, human, plasma, oral, Dabigatran etexilate + belumosudil (Day 9), belumosudil 200 mg QD, read-out: AUC(0-inf), geometric mean): 801 ng·h/mL | AUC(0-inf) ([2]; male, human, plasma, oral, Regimen B, dabigatran etexilate 75 mg single dose + belumosudil 200 mg QD (Day 9), read-out: AUC(0-inf), adj geo mean): 822 ng·h/mL | AUC(0-t) ([2]; male, human, plasma, oral, Regimen B, dabigatran etexilate 75 mg single dose alone (Day 1), read-out: AUC(0-last), adj geo mean): 317 ng·h/mL
Compound: [H]/N=C(/N)c1ccc(NCc2nc3cc(C(=O)N(CCC(=O)O)c4ccccn4)ccc3n2C)cc1 [unconjugated dabigatran, dabigatran, reference compound]

exposure of metabolite relative to the parent [4]: < 5% | T1/2, individual participant value(s) ([2]; human, in vivo): 1.878^b h | median Tmax ([2]; human, in vivo): 1.5 to 2 h | AUC(0-last), geometric mean ([2]; human, in vivo, 200 mg): 35.3 ng·h/mL | Cmax, geometric mean ([2]; human, in vivo, 200 mg): 19.5 ng/mL | Tmax, median ([2]; human, in vivo, 200 mg): 1.750 h | geometric mean T1/2 ([1]; human, in vivo): 1.6 to 2 h | median Tmax ([1]; human, in vivo): 1.5 to 3 h | AUC(0-last), geometric mean ([1]; human, in vivo, 200 mg): 47.6 ng·h/mL | AUC(0-tau), geometric mean ([1]; human, in vivo, 200 mg): 96.6 ng·h/mL | Cmax, geometric mean ([1]; human, in vivo, 200 mg): 21.4 ng/mL | T1/2, geometric mean ([1]; human, in vivo, 200 mg): 1.621 h | Tmax, median ([1]; human, in vivo, 200 mg): 2.00 h | median Tmax (clinical): 1.5 to 2 h | AUC(0-last), geometric mean (clinical; 200 mg): 32.0 ng·h/mL | Cmax, geometric mean (clinical; 200 mg): 17.1 ng/mL | Tmax, median (clinical; 200 mg): 1.500 h | ROCK2 activity of metabolite (ROCK2): ROCK2 active
Compound: NC(=O)COc1cccc(-c2nc(Nc3ccc4[nH]ncc4c3)c3ccccc3n2)c1 [KD025m1]

increase of overall exposure level (clinical; male): 4.62 fold | increase of peak exposure level (clinical; male): 3.59 fold | AUC(0-inf) (clinical; male, 10 mg): 25.4 ng·h/mL | AUC(0-last), geometric mean (clinical; male, 10 mg): 13.6 ng·h/mL | AUC(0-t) (clinical; male, 10 mg): 13.6 ng·h/mL | Cmax, adj geo mean (clinical; male, 10 mg): 2.96 ng/mL | Cmax, geometric mean (clinical; male, 10 mg): 2.96 ng/mL
Compound: CC(C)c1nc(N(C)S(C)(=O)=O)nc(-c2ccc(F)cc2)c1/C=C/[C@@H](O)C[C@@H](O)CC(=O)O [rosuvastatin, reference compound]

increase of exposures (Cmax and AUC) following multiple dosing ([2]; human, in vivo): 1.27-1.42 fold | median Tmax ([2]; human, in vivo): 1.5 to 2 h | AUC(0-last), geometric mean ([2]; human, in vivo, 200 mg): 692 ng·h/mL | AUC(0-tau), geometric mean ([2]; human, in vivo, 200 mg): 746 ng·h/mL | Cmax, geometric mean ([2]; human, in vivo, 200 mg): 184 ng/mL | Tmax, median ([2]; human, in vivo, 200 mg): 2.000 h | increase of exposures (Cmax and AUC) following multiple dosing ([1]; human, in vivo): 1.30-1.49 fold | median Tmax ([1]; human, in vivo): 1.5 to 3 h | AUC(0-last), geometric mean ([1]; human, in vivo, 200 mg): 879 ng·h/mL | AUC(0-tau), geometric mean ([1]; human, in vivo, 200 mg): 961 ng·h/mL | Cmax, geometric mean ([1]; human, in vivo, 200 mg): 278 ng/mL | Tmax, median ([1]; human, in vivo, 200 mg): 2.00 h | increase of exposures (Cmax and AUC) following multiple dosing (clinical): 1.21-1.57 fold | median Tmax (clinical): 1.5 to 2 h | AUC(0-last), geometric mean (clinical; 200 mg): 557 ng·h/mL | AUC(0-tau), geometric mean (clinical; 200 mg): 598 ng·h/mL | Cmax, geometric mean (clinical; 200 mg): 215 ng/mL | Tmax, median (clinical; 200 mg): 2.000 h | ROCK2 activity of metabolite (ROCK2): ROCK2 inactive
Compound: O=C(O)COc1cccc(-c2nc(Nc3ccc4[nH]ncc4c3)c3ccccc3n2)c1 [KD025m2]

Second part, the compound before the results:

Compound: Cc1nnc(C(=O)NC(C)(C)c2nc(C(=O)NCc3ccc(F)cc3)c(O[C@@H]3O[C@H](C(=O)O)[C@@H](O)[C@H](O)[C@H]3O)c(=O)n2C)o1 [raltegravir glucuronide]
peak and overall exposure levels when raltegravir was dosed with belumosudil compared to dosing alone ([1]; Part 1): notable decrease | MPR Cmax (metabolite to parent ratio) ([1]; Raltegravir + belumosudil (Day 7)): 0.299 | AUC(0-24), geometric mean [1, 5]: 1090 ng·h/mL | AUC(0-inf), geometric mean [1, 5]: 1170 ng·h/mL | AUC(0-last), geometric mean [1, 5]: 859 ng·h/mL | Cmax, geometric mean [1, 5]: 207 ng/mL | T1/2, geometric mean [1, 5]: approximately 3.9 h | Tmax, median [1, 5]: 4.000 h | T1/2, geometric mean ([1]; Raltegravir + belumosudil (Day 7), belumosudil 200 mg QD, listed as Raltegravir glucuronide): 3.919 h | MPR Cmax (metabolite to parent ratio) ([1]; Raltegravir alone (Day 1)): 0.506 | AUC(0-24), geometric mean [1, 6]: 1710 ng·h/mL | AUC(0-inf), geometric mean [1, 6]: 1290 ng·h/mL | AUC(0-last), geometric mean [1, 6]: 1420 ng·h/mL | Cmax, geometric mean [1, 6]: 359 ng/mL | T1/2, geometric mean [1, 6]: ~1.5 h | Tmax, median [1, 6]: 4.000 h | T1/2, geometric mean ([1]; Raltegravir alone (Day 1), 400 mg single dose, listed as Raltegravir glucuronide): 1.541 h | AUC(0-last), adj geo mean [1, 7]: 859 ng·h/mL | Cmax, adj geo mean [1, 7]: 207 ng/mL | AUC(0-last), adj geo mean [1, 8]: 1420 ng·h/mL | Cmax, adj geo mean [1, 8]: 359 ng/mL | AUC(0-last), ratio of adj geo means (test/reference) [1, 9]: 60.38% | Cmax, ratio of adj geo means (test/reference) [1, 9]: 57.58%

Compound: CC(C)NC(=O)COc1cccc(-c2nc(Nc3ccc4[nH]ncc4c3)c3ccccc3n2)c1 [Belumosudil mesylate, 2-{3-[4-(1H-indazol-5-ylamino)-2-quinazolinyl]phenoxy}-N-(propan-2-yl) acetamide methanesulfonate (1:1)]
solubility in DMF ([3]; DMF): slightly soluble | solubility in DMSO ([3]; DMSO): soluble | solubility in methanol ([3]; methanol): slightly soluble | solubility in water ([3]; water): practically insoluble

Compound: Cc1nnc(C(=O)NC(C)(C)c2nc(C(=O)NCc3ccc(F)cc3)c(O)c(=O)n2C)o1 [raltegravir, reference compound]
Tmax, median [1, 5]: 3.000 h | Tmax, median [1, 6]: 3.000 h | AUC(0-inf) ([1]; male, human, in vivo, 400 mg): 1510 ng·h/mL | Cmax, adj geo mean ([1]; male, human, in vivo, 400 mg): 512 ng/mL | Cmax, geometric mean ([1]; male, human, in vivo, 400 mg): 520 ng/mL | T1/2, geometric mean ([1]; male, human, in vivo, 400 mg): 1.434 h | half-life ([1]; male, human, in vivo, 400 mg): ~1.4 h | AUC(0-t) ([1]; male, human, in vivo, 400 mg, AUC(0-24), geometric mean): 1970 ng·h/mL | AUC(0-t) ([1]; male, human, in vivo, 400 mg, AUC(0-last), adj geo mean): 1570 ng·h/mL | AUC(0-t) ([1]; male, human, in vivo, 400 mg, AUC(0-last), geometric mean): 1640 ng·h/mL
